Experimental data from patent publication US7943128B2, “Anti-microbial compositions comprising a cationic peptide and a glycylglycine endopeptidase” (priority 2006, dated 2011).
Positions of bridges follow the written chain, without caps; N, C: chain ends. No end group written: not given here.

Legend:
[1] = test system: Staphylococcus aureus MRSA252 and Staphylococcus aureus MSSA476; experiment: Impregnated dried paper disks on TSA plates, zones of inhibition; format: cell-based; details: none at lower amounts
Protocol: Sterile Whatman paper disks were impregnated with ranalexin (0.5, 1, 2, 5, 10 or 20 μg), with lysostaphin (0.1, 0.2, 0.5, 1, 2 or 5 μg), a combination of 1 μg lysostaphin and ranalexin (0.5, 1, 2, 5, 10 or 20 μg), or a combination of 10 μg ranalexin and lysostaphin ([…], 0.5, 1, 2 or 5 μg). The paper disks were allowed to dry overnight and then stored at −20° C. until required.
Cultures of Staphylococcus aureus MRSA252 and Staphylococcus aureus MSSA476 were grown to mid-log phase (OD600 0.6-0.9) and diluted to 0.6 if necessary. 150 μl of the culture was then spread onto TSA (Tryptone Soya Agar; Oxoid, Basingstoke, UK) plates and allowed to dry. An impregnated paper disk prepared as described above was placed centrally on the agar plates. Plates were incubated for 20 hours at 37° C. before visual assessment of the zones of inhibition (see FIG. 8) which were visible as clear areas around the disks.

[2] = test system: Staphylococcus aureus MRSA252; experiment: Microtitre plate growth inhibition in TSB, 48 hours, turbidity; format: cell-based; details: for concentration needed for inhibition, compound alone: MRSA252, 48 hours, in the absence of the other compound
Protocol: (§1) Staphylococcus aureus strains MSSA476 (left) and MRSA252 (right) were cultivated in TSB (Tryptone Soya Broth; Oxoid Basingstoke, UK) to mid-exponential phase. Cultures were then diluted in fresh medium to a starting optical density of 600 nm of 0.001 (approximately 1.0×10^6 cells/ml). Growth of 100 μl volume cultures was measured in 96-well culture plates using TSB as control for 37° C. for 48 hours without shaking in the presence of 0 μg ranalexin/ml medium to 50 μg/ml, increasing stepwise by 5 μg/ml. 8 samples were cultivated for each concentration of ranalexin and to each such sample a different concentration of lysostaphin was added from 0 μg/ml to 1.05 μg/ml in steps of 0.15 μg/ml. The antibacterial activity was measured by reduced turbidity measured by optical density by scanning on an Image Scanner (GE Healthcare UK Ltd) using Image Master Labscan v.3 software. The concentration of ranalexin is indicated above the respective column, each well of a column having the same ranalexin concentration. The wells of each row contain lysostaphin at a final concentration of 0 μg lysostaphin per ml medium to 1.05 μg/ml (as indicated on left), increasing stepwise by 0.15 μg/ml. For S. aureus MSSA476 cultivated in the absence of lysostaphin, ranalexin provides an inhibitory effect at concentrations above 30 μg/ml medium (typically 35 to 40 μg/ml). […] The combination of ranalexin and lysostaphin reduces the necessary amount of each of the compounds by providing a synergistic antimicrobial effect.
(§2) Staphylococcus aureus strains MSSA476 (left) and MRSA252 (right) were cultivated in TSB medium as described in Example 1, except for the narrower concentration ranges of ranalexin and lysostaphin. Ranalexin is provided at concentrations of 0 μg/ml, 0.5 μg/ml and 1 μg/ml to 10 μg/ml, increasing stepwise by 1 μg/ml medium, and lysostaphin concentrations of 0 μg/ml to 0.2 μg/ml, with intermediate concentrations of 0.01 μg/ml, 0.025 μg/ml, 0.05 μg/ml, 0.075 μg/ml, 0.1 μg/ml and 0.15 μg/ml as indicated in FIG. 2.

[3] = test system: Staphylococcus aureus MSSA476; experiment: as above; format: cell-based
Protocol: as §1, §2

MRSA252 = experiment: Bactericidal assay, survivors after 30 minute exposure in TSB broth; format: cell-based, Staphylococcus aureus
Protocol: MRSA252 in TSB broth was exposed for 30 mins to either: increasing concentrations (0, 1, 2, 4, 6, 8 and 10 μg/ml) of ranalexin alone (filled squares); increasing concentrations (0.0, 0.01, 0.02, 0.04, 0.06, 0.08, 0.1 μg/ml) of lysostaphin alone (filled circles); or a combination of 8 μg/ml ranalexin with increasing concentrations (0.0, 0.01, 0.02, 0.04, 0.06, 0.08, 0.1 μg/ml) of lysostaphin. Total cell numbers, or survivors, after a 30 minute exposure to each of the above conditions were determined by serial dilution and plating on TSB agar. Survivors were determined after 24 hours incubation of the TSB plates at 37° C. and expressed as the log of colony forming units per ml of broth. The arrows on FIG. 7 indicate that the numbers of survivors were less than the minimum detectable by this method.

[4] = test system: Staphylococcus aureus strains MSSA476 and MRSA252; experiment: Microtitre plate growth inhibition with dermaseptin s3(1-16) or magainin 2 and lysostaphin (Examples 3, 4); format: cell-based; details: either strain, up to 50 μg ml^−1

Substance: lysostaphin: 27 kDa zinc-dependent metallopeptidase (glycylglycine endopeptidase) secreted by Staphylococcus simulans and S. staphylolyticus
- zone of inhibition, agent alone ([1]; disk with 5 μg lysostaphin): some minimal inhibition
- concentration needed for inhibition, compound alone [2]: above 0.45 μg/ml
- MIC ([2]; MRSA252, lysostaphin alone): approximately 0.45 μgml
- concentration providing an inhibitory effect, compound alone ([3]; MSSA476, 48 hours, in the absence of the other compound): above 0.75 μg/ml
- MIC ([3]; MSSA476, lysostaphin alone): approximately 0.75 μg/ml
- reduction in numbers (MRSA252; 0.06 μg ml^−1 lysostaphin, 30 minutes): 0.5 log
- effect on viable cell numbers (MRSA252; lysostaphin alone, 0.01 to 0.1 μg ml, 30 minutes): minor decrease in viable cell numbers

Substance: Magainin 2
- inhibitory effect of the peptide alone [4]: little inhibitory effect

Substance: ranalexin: 20 amino acid bullfrog peptide FLGGLIKIVPAMICAVTKKC (SEQ ID NO 1) with a single intramolecular disulphide bond (FLGGLIKIVPAMICAVTKKC; disulfide 14-20 (inferred); listed as Rana catesbeiana)
- zone of inhibition, agent alone ([1]; disk with 20 μg ranalexin): some minimal inhibition
- concentration needed for inhibition, compound alone [2]: above 40 μg/ml
- effect on viability (MRSA252; ranalexin alone up to 10 μg ml^−1, 30 minutes): no detectable effect on viability
